# Measured values reported in patent US4151281A, “Medicinal preparation for the treatment of collagenoses of a rheumatoid nature” (priority 1977, dated 1979).
# Columns and labels:
# [1] = cited from earlier work
# systemic scleroderma [2] = conditions: known preparations; cited from earlier work
# [3] = side effects and action on lasting administration, compared with known remedies for collagenoses; type: in vivo
# systemic scleroderma [4] = test: clinical treatment of systemic scleroderma; type: in vivo, patients
# Protocol: (§1) The method of treatment consists in oral administration of the proposed preparation in 0.1 to 0.2 g doses in tablet form […], or in the form of a 5% solution for injections with 5 ml doses once a day. The daily dose shall not be over 0.6 g per patient.
# Five patients were treated for systemic scleroderma. […] One of these patients, following a 1.5 year course of treatment, resumed work after a three-year interval caused by the disease.
# rheumatoid arthritis = test: clinical trial in patients with rheumatoid arthritis; type: in vivo
# Protocol: as §1
# The main group (69 persons) consisted of patients with rheumatoid arthritis in the 2nd and 3rd degree of activity.
# adrenal cortex = test: corticosteroid concentration in the blood of rheumatoid arthritis or systemic lupus erythematosus patients during clinical trials; type: in vivo; conditions: regularly given
# Text: Accordingly, the observed increase of the concentration of corticosteroids in the blood of rheumatoid arthritis or systemic lupus erythematosus patients, regularly given the proposed preparation during clinical trials in the above mentioned doses, testifies to its stimulating effect on the andrenal cortex.
# [5] = tested on: systemic lupus erythematosus; test: clinical treatment of systemic lupus erythematosus; type: in vivo, patients
# Protocol: as §1
# Eight patients were treated for systemic lupus erythematosus.
# [6] = acute toxicity, single dose by probe into the stomach, albino mice, 3 days observation (Litchfield and Wilcoxson); conditions: mouse, in vivo, po, albino mice 16-17 g, limits in parentheses
# Protocol: The proposed preparation was tested for toxicity in the acute and chronic tests. The acute toxicity of the preparation was determined in tests in albino mice (weighing 16 to 17 g) by introducing (by means of a probe into the stomach) amounts equal to 1,000 to 5,000 mg/kg of the animals body weight. Each dose was tested in five animals. Observation was continued for three days.
# [7] = single administration by probe into the stomach to narcotized cats; type: in vivo
# Protocol: After a 1,000 mg/kg dose, these symptoms are more pronounced.
# normal fibroblasts = test: 48-hour study of effect on cell growth in a culture of normal fibroblasts from healthy donors; type: cell-based; conditions: Fibroblast, 100-gamma per 1 ml of medium, read-out: reduction of the number of cells in the culture
# Text: This fact explains to a certain degree the action mechanism of the preparation in cases of systemic scleroderma.
# [8] = chronic toxicity test, daily doses for three months, white rats; type: in vivo; conditions: for Index of anti-toxic function of the liver (quantity of isolated benzoic acid): P = 0.05
# Protocol: […] Each dose was investigated in 20 animals (10 males and 10 females). Twenty rats served as controls. Changes in weight were recorded, the general status and behavior were observed, the peripheral blood picture was examined (hemoglobin, erythrocytes, leukocytes, thrombocytes, the leukocytary formula). For determining the functional state of the liver, kidneys, the pancreas, some biochemical indices of the urine (albumin, sugar, bile pigments) and the blood (sugar, cholesterol, bilirubin, urea, alkaline phosphatase, chlorides) were examined, just as the antitoxic function of the liver.
# After the end of the tests the animals were slaughtered by decapitation: part of them immediately after the administration of the preparation, part-ten days later.
# The internal organs of the slaughtered animals were examined both macro- and microscopically.
# [9] = most of the patients, continued treatment
compound,measurement,setting,value
CCN(CC)CCCC(C)Nc1ccnc2cc(Cl)ccc12 (stereo not shown) [Delagil],complications of antimalarial preparations,[1]; treatment of collagenoses of a rheumatoid nature,"cause leukopenia, and also affect the acoustic and optic nerves, the liver, the myocardium"
COc1ccc2c(c1)c(CC(=O)O)c(C)n2C(=O)c1ccc(Cl)cc1 [Indometacin],mental disorders,[1]; derivatives of indole,"confused consciousness, somnolency"
same,ulcerogenic effect,"[1]; derivatives of indole, ulceration of the stomach, esophagus, the intestine",possess an ulcerogenic effect
same,whether the above results are produced in systemic scleroderma,systemic scleroderma [2],not produced
CC(C)Cc1ccc(C(C)C(=O)O)cc1 (stereo not shown) [Brufen],whether the above results are produced in systemic scleroderma,systemic scleroderma [2],not produced
"Cc1[nH]c(=O)[nH]c(=O)c1S(=O)(=O)Nc1ccc(S(=O)(=O)c2ccc(NS(=O)(=O)c3c(C)[nH]c(=O)[nH]c3=O)cc2)cc1 [preparation, p,p-/2,4-dioxy-6-methyl pyrimidinyl-5-sulfonamino/diphenyl sulfone]",function of the adrenal cortex,[3]; as testified by rising corticosteroids content of the blood,stimulates the function of the adrenal cortex
same,"complications of indole derivatives (ulceration, mental disorders)",[3]; even when used for many years,does not cause such complications
same,dosage of prescribed corticosteroids,[3]; in vivo,"to be reduced and, in individual cases, discontinuing them altogether"
same,general and water-and-salt metabolic disorders,[3]; in vivo,does not cause general and water-and-salt metabolic disorders
same,toxicity,[3]; in vivo,low toxicity
same,"complications of antimalarials (leukopenia; acoustic and optic nerves, liver, myocardium)",[3]; lasting administration (1-2 years and more),does not cause the above-mentioned complications
same,pre-existing metabolic disorders,[3]; when present,tend to normalize
same,"reduction of skin induration, flexion contracture of the hand and sensation of skin tension",systemic scleroderma [4]; five patients,All of them manifested a reduction
same,patients who resumed work,"systemic scleroderma [4]; of five patients, 1.5 year course, after a three-year interval",One
same,"articular index after treatment, average","rheumatoid arthritis; 61 patients, from 46-48 points",16-20 points
same,gravest patients who became capable of taking care of themselves unaided,"rheumatoid arthritis; administration for 1.5 to 2 years, three bed-ridden for 3 to 5 years",Eight
same,"first compression force after treatment, average","rheumatoid arthritis; all the patients, from 14.4±1.7 kgf",22.0±2.1 kgf
same,corticosteroid content in the blood,rheumatoid arthritis; due to the increasing activity of the 11-oxicorticosteroids,increase
same,patients with articular index without change,rheumatoid arthritis; during the period of treatment,8 patients
same,patients with reduced articular index,rheumatoid arthritis; during the period of treatment,61 patients
same,C-reactive protein after treatment,"rheumatoid arthritis; from (++++), most of the patients, continued treatment",(++) and even (+)
same,patients in whom the pain syndrome disappeared,"rheumatoid arthritis; majority of patients, on the 10th to 12th day",51
same,ESR,rheumatoid arthritis; [9],reduction
same,reduction of the sialic acid content of the blood,rheumatoid arthritis; [9],0.05 optical density units
same,time to beginning of improvement of therapeutic indices,"rheumatoid arthritis; not later than, after the beginning of treatment",3 to 4 weeks
same,patients in whom morning-time torpidity disappeared completely,rheumatoid arthritis; of 69 patients,48 patients
same,patients managing on essentially reduced doses of corticosteroids,rheumatoid arthritis; of the eight gravest patients,six
same,patients who do not need corticosteroids any more,rheumatoid arthritis; of the eight gravest patients,two
same,patients with only an abatement of the pain syndrome (arthralgia),rheumatoid arthritis; other patients,18 patients
same,period of morning-time torpidity after treatment,"rheumatoid arthritis; other patients, shortened from 103.3±14.4 min",41.4 ± 9.73 min
same,patients with abatement of morning-time torpidity and greater scope of joint movement,rheumatoid arthritis; out of the 69 patients,59 patients
same,leukocyte count,rheumatoid arthritis; patients with leukopenias or leukocytoses accompanying rheumatoid arthritis,tendency towards the normalization
same,pain syndrome towards the end of the first week of treatment,rheumatoid arthritis; rheumatoid arthritis,tangibly abated
same,patients in whom improvement took much longer,rheumatoid arthritis; rheumatoid arthritis,8 patients
same,concentration of corticosteroids in the blood,adrenal cortex,increase
same,complete recovery,"[5]; of eight patients, intake for two years",one
same,effect in the other cases on complications due to corticosteroids and quinoline preparations,[5]; other cases of eight patients,substantially alleviate the complications
same,LD50 at 72 h,[6],2600 mg/kg
same,symptoms,[7]; single 500 mg/kg,"unrest is observed (motorial excitation, mewing, salivation and vomiting)"
same,time after administration at which unrest is observed,[7]; single 500 mg/kg,10 to 20 min
same,condition on the second day after administration,"[7]; single 1,000 mg/kg",returned to normal
same,symptoms,"[7]; single 1,000 mg/kg",these symptoms are more pronounced. There is repeated vomiting and loss of appetite
same,visible changes,[7]; single 100 to 200 mg/kg,no visible changes
same,inhibition at 100 µg/mL,normal fibroblasts,30%
same,Index of anti-toxic function of the liver (quantity of isolated benzoic acid),"[8]; females, after 3 months of 100 mg/kg oral doses (controls 10.1±5.1)",10.9±2.2
same,Index of anti-toxic function of the liver (quantity of isolated benzoic acid),"[8]; males, after 3 months of 100 mg/kg oral doses (controls 6.68±0.33)",6.5±1.14
same,fattiness at post mortem examination,"[8]; rat, in vivo",good fattiness
same,macro- and microscopic examination of organs,"[8]; rat, in vivo",no pathological changes
same,"weight of thyroid gland, testes, spleen and adrenal glands versus control group","[8]; rat, in vivo",did not differ
